According to patent US4962113A, “Pyridinium derivatives, their production and use” (Takeda Chemical Industries, Ltd, priority 1987, dated 1990):
Where two headings read alike, the source gives them in different places.

Tests used:
[1] = tested on: platelet aggregation (PAF); assay: Inhibitory action on PAF-induced rabbit platelet aggregation; format: cell-based; details: Oryctolagus cuniculus, read-out: inhibitory percentage (platelet aggregation); for inhibition at 3 µM: 3 × 10^-6 M; for inhibition at 0.3 µM: 3 × 10^-7 M; for inhibition at 0.03 µM: 3 × 10^-8 M
Procedure: Blood was collected directly from the hearts of male rabbits using a syringe containing, as an anticoagulant, 3.15% citric acid (one part to 9 parts of blood). The blood was subjected to centrifuge at 800 rpm for ten minutes at room temperature to obtain platelet rich plasma (PRP). The remaining blood was further subjected to centrifuge at 3000 rpm for ten minnutes to separate platelet poor plasma (PPP) as the supernatant. PRP was diluted with PPP, and the number of platelets was adjusted to about 500,000/ μl. This PRP(250 μl) was stirred for two minutes at 37° C., and there was added a test sample, and the mixture was stirred for further two minutes, followed by addition of PAF of a given concentration. Platelet aggregation was examined by means of a platelet-agglutometer (manufactured by Rika Denki). Platelet aggregation preventing action of the test sample was determined based on the maximum percent light transmission (maximum percent. agglutination).

[2] = tested on: PAF-induced hypotension; assay: Inhibitory action on PAF-induced hypotension in rats; format: in vivo, rat (Sprague-Dawley); details: Rattus norvegicus, read-out: Inhibitory Rate (Lowering of Blood Pressure); for inhibition in vivo at 0.01 mg/kg / inhibition in vivo at 0.03 mg/kg / inhibition in vivo at 0.1 mg/kg: iv; for inhibition in vivo at 1 mg/kg / inhibition in vivo at 3 mg/kg / inhibition in vivo at 10 mg/kg / inhibition in vivo at 30 mg/kg: oral
Procedure: Sprague-Dawley male rats, each weighing about 250 g, were subjected to the experiment. The rats were cannulated on the side of femoral artery for measuring the blood pressure, and on the side of femoral vein for administering the drug. The blood pressure was measured through a pressure transducer and recorded. First, PAF (1 μg/kg) was administered intravenously (i.v.) to examine the extent of lowering of blood pressure. Then, the test samples were administered intravenously or orally. […]
The inhibitory action on PAF-induced hypotension (% inhibition) is indicated as the ratio of blood pressure-lowering degree (Δ mmHg) induced by PAF after administration of test samples relative to blood pressure-lowering degree (Δ mmHg) induced by PAF before administration of test samples.

## CCCCN(CCOC(=O)NCCOc1cccc2ccccc12)C(=O)c1cc(Br)c[n+](CC)c1 [Production Example 19, 5-bromo-1-ethyl-3-[N-butyl-N-[2-[2-(1-naphthyloxy)ethyl]carbamoyloxy]ethyl]carbamoylpyridinium iodide]
[1]
  inhibition at 3 µM: 100%
  inhibition at 0.3 µM: 100%
  inhibition at 0.03 µM: 42%

## CCC[n+]1cc(Br)cc(C(=O)N(CCOC(=O)NCCOC(=O)Nc2cccc3ccccc23)c2cc(OC)c(OC)c(OC)c2)c1 [Production Example 27, 5-bromo-3-[N-[2-[2-(1-naphthylcarbamoyloxy)ethyl]carbamoyloxy]ethyl-N-(3,4,5-trimethoxyphenyl)]carbamoyl-1-propylpyridinium chloride]
[1]
  inhibition at 3 µM: 100%
  inhibition at 0.3 µM: 100%
  inhibition at 0.03 µM: 3%

## CCC[n+]1cc(Cl)cc(C(=O)N(CCC(=O)NCCOC(=O)N2CCc3ccccc3C2)c2ccccc2)c1 [Production Example 88, 5-Chloro-3-[N-[2-[[2-(1,2,3,4-tetrahydroisoquinolyl)carbonyloxy]ethyl]carbamoyl]ethyl-N-phenyl]carbamoyl-1-propylpyridinium chloride]
[1]
  inhibition at 3 µM: 100%
  inhibition at 0.3 µM: 100%
  inhibition at 0.03 µM: 33%
[2]; 1 hr.
  inhibition in vivo at 0.01 mg/kg: 59%
  inhibition in vivo at 1 mg/kg: 70%
  inhibition in vivo at 3 mg/kg: 93%
[2]; 2 hr.
  inhibition in vivo at 0.01 mg/kg: 55%
  inhibition in vivo at 1 mg/kg: 75%
  inhibition in vivo at 3 mg/kg: 95%
[2]; 4 hr.
  inhibition in vivo at 0.01 mg/kg: 40%
  inhibition in vivo at 1 mg/kg: 73%
  inhibition in vivo at 3 mg/kg: 98%
[2]; 6 hr.
  inhibition in vivo at 0.01 mg/kg: 25%
  inhibition in vivo at 1 mg/kg: 61%
  inhibition in vivo at 3 mg/kg: 83%
[2]; 8 hr.
  inhibition in vivo at 0.01 mg/kg: 19%
  inhibition in vivo at 1 mg/kg: 58%
  inhibition in vivo at 3 mg/kg: 85%
[2]; 5 min, i.v., 5 min.
  inhibition in vivo at 0.01 mg/kg: 95%

## CCC[n+]1cc(Br)cc(C(=O)N(CCOC(=O)NCCOc2cccc3ccccc23)c2ccccc2)c1 [Production Example 7, 5-bromo-3-[N-[2-[2-(1-naphthyloxy)ethyl]carbamoyloxy]ethyl-N-phenyl]carbamoyl-1-propylpyridinium iodide]
[1]
  inhibition at 3 µM: 100%
  inhibition at 0.3 µM: 100%
  inhibition at 0.03 µM: 18%
[2]; 1 hr.
  inhibition in vivo at 0.01 mg/kg: 59%
  inhibition in vivo at 0.03 mg/kg: 84%
  inhibition in vivo at 0.1 mg/kg: 100%
  inhibition in vivo at 3 mg/kg: 36%
  inhibition in vivo at 10 mg/kg: 100%
  inhibition in vivo at 30 mg/kg: 100%
[2]; 2 hr.
  inhibition in vivo at 0.01 mg/kg: 48%
  inhibition in vivo at 0.03 mg/kg: 81%
  inhibition in vivo at 0.1 mg/kg: 91%
  inhibition in vivo at 3 mg/kg: 59%
  inhibition in vivo at 10 mg/kg: 97%
  inhibition in vivo at 30 mg/kg: 100%
[2]; 4 hr.
  inhibition in vivo at 0.01 mg/kg: 45%
  inhibition in vivo at 0.03 mg/kg: 68%
  inhibition in vivo at 0.1 mg/kg: 76%
  inhibition in vivo at 3 mg/kg: 63%
  inhibition in vivo at 10 mg/kg: 92%
  inhibition in vivo at 30 mg/kg: 97%
[2]; 6 hr.
  inhibition in vivo at 0.01 mg/kg: 40%
  inhibition in vivo at 0.03 mg/kg: 57%
  inhibition in vivo at 0.1 mg/kg: 63%
  inhibition in vivo at 3 mg/kg: 59%
  inhibition in vivo at 10 mg/kg: 84%
  inhibition in vivo at 30 mg/kg: 89%
[2]; 8 hr.
  inhibition in vivo at 0.01 mg/kg: 35%
  inhibition in vivo at 0.03 mg/kg: 51%
  inhibition in vivo at 0.1 mg/kg: 58%
  inhibition in vivo at 3 mg/kg: 41%
  inhibition in vivo at 10 mg/kg: 78%
  inhibition in vivo at 30 mg/kg: 86%
[2]; 5 min, i.v., 5 min.
  inhibition in vivo at 0.01 mg/kg: 76%
  inhibition in vivo at 0.03 mg/kg: 100%
  inhibition in vivo at 0.1 mg/kg: 100%

## CCC[n+]1cc(Br)cc(C(=O)N(CCOC(=O)NCCOC(=O)Nc2cccc3ccccc23)c2ccc(I)cc2)c1 [Production Example 25, 5-bromo-3-[N-(4-iodophenyl)-N-[2-[2-(1-naphthylcarbamoyloxy)ethyl]carbamoyloxy]ethyl]carbamoyl-1-propylpyridinium chloride]
[1]
  inhibition at 3 µM: 100%
  inhibition at 0.3 µM: 100%
  inhibition at 0.03 µM: 18%

## CCCCCCCCCCCCCCCCCCNC(=O)OCC(COC(=O)NCCN(C)C(=O)c1ccc[n+](CC)c1)OC (stereo not shown) [Production Example 1, 3-[N-[2-(2-methoxy-3-octadecylcarbamoyloxypropoxycarbonyl)]aminoethyl-N-methyl]carbamoyl-1-ethylpyridinium iodide]
[1]
  inhibition at 3 µM: 100%
  inhibition at 0.3 µM: 100%
  inhibition at 0.03 µM: 9%

## CCC[n+]1cc(Br)cc(C(=O)N(CCOC(=O)NCCOC(=O)Nc2cccc3ccccc23)c2ccc(Cl)cc2)c1 [Production Example 22, 5-bromo-3-[N-(4-chlorophenyl)-N-[2-[2-(1-naphthylcarbamoyloxy)ethyl]carbamoyloxy]ethyl]carbamoyl-1-propylpyridinium chloride]
[1]
  inhibition at 3 µM: 100%
  inhibition at 0.3 µM: 100%
  inhibition at 0.03 µM: 11%

## CC[n+]1cc(Br)cc(C(=O)N(CCOC(=O)NCCOc2cccc3ccccc23)c2ccccc2)c1 [Production Example 6, 5-bromo-3-[N-[2-[2-(1-naphthyloxy)ethyl]carbamoyloxy]ethyl-N-phenyl]carbamoyl-1-ethylpyridinium iodide]
[1]
  inhibition at 3 µM: 100%
  inhibition at 0.3 µM: 100%
  inhibition at 0.03 µM: 34%

## CCN(CCOC(=O)NCCOc1cccc2ccccc12)C(=O)c1cc(Br)c[n+](CC)c1 [Production Example 15, 5-bromo-1-ethyl-3-[N-ethyl-N-[2-[2-(1-naphthyloxy)ethyl]carbamoyloxy]ethyl]carbamoylpyridinium iodide]
[1]
  inhibition at 3 µM: 100%
  inhibition at 0.3 µM: 100%
  inhibition at 0.03 µM: 22%
